The values below come from US7696166B2, “Use of cyclosporin alkyne/alkene analogues for preventing or treating viral-induced disorders” (Albany Molecular Research, Inc., priority 2006, dated 2010).

The conditions of assay [1]: cited from earlier work.
A further assay deals with HIV-1. The note with it: literature reports, background; cited from earlier work.
The test system of a further assay is calcineurin. The note with it: background; cited from earlier work.
Assay [2] has as its system concanavalin A-stimulated murine splenocytes. In words: Concanavalin A (ConA)-stimulated murine splenocyte assay. The class given is cell-based, BALB/c mice. The note with it: for IC50: novel cyclosporin alkyne analogue, ConA-stimulated murine splenocytes, [3H]thymidine incorporation. As for the experimental part:
Male BALB/c mice, at 5 to 7 weeks of age, were sacrificed by CO2 inhalation. Spleens were removed and dissociated by pushing through a nylon cell strainer. The splenocytes were washed in RPMI 1640/5% fetal calf serum (FCS) and pelleted at 400×g. Red blood cells were then lysed by resuspending the cell pellet in ACK lysis buffer (150 mM NH4Cl, 1 mM KHCO3, 0.1 mM EDTA, 3 mL per spleen) for 10 min at room temperature. After pelleting at 400×g, the cells were washed by resuspending in RPMI 1640/5% FCS and repelleting. The cell pellet was resuspended in RPMI 1640/5% FCS and again passed through a cell strainer to remove cell aggregates. The cells were then counted and adjusted to 2×10^6 cells/ml in RPMI 1640/10% FCS/50 μM 2-mercaptoethanol. Cell viability was assessed by Trypan blue staining. Cyclosporin A or the test compound and two micrograms of concanavalin A were added to the wells of a 96 well plate, prior to the addition of 2×10^5 splenocytes. The cells were cultured in a 37° C. CO2 incubator for 2 days and then pulsed with 1 μCi of [^3H]thymidine for 6 hours. Cells were harvested onto filtermats with a TomTec 96 well plate harvester and lysed with H2O. The filtermat and scintillation fluid were sealed in a plastic sleeve. [^3H]thymidine incorporation was measured with a Wallac Trilux plate counter. Initial screens were done at a fixed value of 100 ng/ml test compound. IC50s were calculated from 7 point concentration-response curves using GraphPad software.
On the technique in general: Uptake of a labelled nucleoside into DNA is a usual measure of proliferation.

The next assay concerns hepatitis C virus. The note with it: Paeshuyse et al. 2005; cited from earlier work.
For another assay, the target named is cyclophilin A (Homo sapiens, UniProt P62937). The note with it: background; cited from earlier work.
cyclophilin A, sequence (P62937 whole entry): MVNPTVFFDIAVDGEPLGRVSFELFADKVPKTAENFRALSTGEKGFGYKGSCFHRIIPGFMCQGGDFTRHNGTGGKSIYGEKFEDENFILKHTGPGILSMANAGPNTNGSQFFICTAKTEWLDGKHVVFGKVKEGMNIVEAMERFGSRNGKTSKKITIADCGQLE

≈ marks a conversion by molar mass, not a printed value. Entries after “also recorded” stand apart in the source; their conditions may differ.

Regarding `CC#CC[C@@H](C)[C@@H](O)[C@H]1C(=O)N[C@@H](CC)C(=O)N(C)CC(=O)N(C)[C@@H](CC(C)C)C(=O)N[C@@H](C(C)C)C(=O)N(C)[C@@H](CC(C)C)C(=O)N[C@@H](C)C(=O)N[C@H](C)C(=O)N(C)[C@@H](CC(C)C)C(=O)N(C)[C@@H](CC(C)C)C(=O)N(C)[C@@H](C(C)C)C(=O)N1C` [known cyclosporin alkyne], the “relative immunosuppressive activity compared to cyclosporin A” value in assay [1] (Rich et al., J. Med. Chem. 33:999-1009 (1990)) is 10%.
As to `C/C=C/C[C@@H](C)[C@@H](O)[C@H]1C(=O)N[C@@H](CC)C(=O)N(C)CC(=O)N(C)[C@@H]([C@@H](C)CC)C(=O)N[C@@H](C(C)C)C(=O)N(C)[C@@H](CC(C)C)C(=O)N[C@@H](C)C(=O)N[C@H](C)C(=O)N(C)[C@@H](CC(C)C)C(=O)N(C)[C@@H](CC(C)C)C(=O)N(C)[C@@H](C(C)C)C(=O)N1C` [SDZ NIM 811], the anti-HIV-1 activity entry with HIV-1 was “potent and selective anti-HIV-1 activity”. The inhibition of calcineurin result with calcineurin was “does not inhibit”. The immunosuppressive activity result in assay [1] (Mlynar et al. 1997, background) is given as “completely devoid of immunosuppressive activity; also recorded: none of the immunosuppressive activity”.
By IC50 is commonly meant the concentration that inhibits the measured activity by half. As for cyclosporin alkynyl iodide [Example 13], the “IC50” value in assay [2] was determined as 1 ng/mL.
Take `CC[C@@H]1NC(=O)[C@H]([C@H](O)[C@H](C)C/C=C/C#CC2CC2)N(C)C(=O)[C@H](C(C)C)N(C)C(=O)[C@H](CC(C)C)N(C)C(=O)[C@H](CC(C)C)N(C)C(=O)[C@@H](C)NC(=O)[C@H](C)NC(=O)[C@H](CC(C)C)N(C)C(=O)[C@H](C(C)C)NC(=O)[C@H](CC(C)C)N(C)C(=O)CN(C)C1=O` [Example 33, cyclosporin cyclopropyl alkyne]: the “potency in immunosuppression compared to cyclosporin A and ISATX247” value in assay [2] (FIG. 1 legend) is “enhanced or similar potency”. The “IC50” value in assay [2] is given as 9 ng/mL (≈ 7.18 nM).
As to `C/C=C/C[C@@H](C)[C@@H](O)[C@H]1C(=O)N[C@@H](CC)C(=O)N(C)[C@H](C)C(=O)N(CC)[C@@H](C(C)C)C(=O)N[C@@H](C(C)C)C(=O)N(C)[C@@H](CC(C)C)C(=O)N[C@@H](C)C(=O)N[C@H](C)C(=O)N(C)[C@@H](CC(C)C)C(=O)N(C)[C@@H](CC(C)C)C(=O)N(C)[C@@H](C(C)C)C(=O)N1C` [DEBIO-025], in the assay on HIV-1, the anti-HIV-1 activity entry is recorded as “effective for the treatment of HIV-1”. Besides, the “inhibition of hepatitis C virus replication” value in the assay with hepatitis C virus was “potent and selective inhibition”. At cyclophilin A, the “binding affinity for cyclophilin A” value was “potent binding affinity”.
For the molecule `CCC1NC(=O)C(C(O)C(C)CC=CC#CBr)N(C)C(=O)C(C(C)C)N(C)C(=O)C(CC(C)C)N(C)C(=O)C(CC(C)C)N(C)C(=O)C(C)NC(=O)C(C)NC(=O)C(CC(C)C)N(C)C(=O)C(C(C)C)NC(=O)C(CC(C)C)N(C)C(=O)CN(C)C1=O` (centres unmarked) [Example 15, cyclosporin alkynyl bromide], in assay [2], the “IC50” value is 8 ng/mL.
